Tested on: NHACs
Test: calcium flux assay
Format: cell-based, human
Details: Homo sapiens; for Emax: read-out: (A) % Efficacy
Procedure, shortened: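 FLIPR fluorescence (ex 470–495 nm, em 515–575 nm) was read before and after compound dispense at the indicated dose. Chondrocytes (NHACs), 2000 cells/well, had been dye-loaded 24 h after plating with Calcium 5 in HBSS/HEPES plus 5 mM probenecid, 1 h, room temperature.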

SMILES | EC50 [µM] | Emax [%]
Cc1cc([C@H]2[C@H]3O[C@H]([C@@H]4C[C@@H]43)[C@H]2C(=O)Nc2cnc(Cl)c(Cl)c2)ccn1 (single isomer, unassigned) [Example 45] | 14 | 32
O=C(Nc1cnc(Cl)c(Cl)c1)[C@@H]1[C@@H](c2ccnc(F)c2F)[C@H]2O[C@@H]1C[C@@H]2O [Example 91, (1R,2R,3S,4R,5S)—N-(5,6-dichloropyridin-3-yl)-3-(2,3-difluoropyridin-4-yl)-5-hydroxy-7-oxabicyclo[2.2.1]heptane-2-carboxamide] | 4.4 | 66
COc1ccc(NC(=O)[C@H]2[C@@H]3O[C@@H]([C@H]4C[C@H]43)[C@@H]2c2ccncc2)cn1 [Example 125, (1S,2S,4R,5R,6R,7S)—N-(6-methoxypyridin-3-yl)-7-(pyridin-4-yl)-8-oxatricyclo[3.2.1.0^2,4]octane-6-carboxamide] | 17 | 162
O=C(Nc1ccc(Cl)c(Cl)c1)[C@H]1[C@@H](c2ccnc(F)c2)[C@H]2O[C@@H]1C[C@@H]2O (racemic) [Example 52, rac-(1R,2S,3S,4R,5S)—N-(3,4-dichlorophenyl)-3-(2-fluoropyridin-4-yl)-5-hydroxy-7-oxabicyclo[2.2.1]heptane-2-carboxamide] | > 50 | 4
COc1cc([C@@H]2[C@@H](C(=O)Nc3ccc(Cl)c(Cl)c3)[C@@H]3O[C@H]2C[C@H]3F)ccn1 [Example 104, (1S,2R,3S,4S,6R)—N-(3,4-dichlorophenyl)-6-fluoro-3-(2-methoxypyridin-4-yl)-7-oxabicyclo[2.2.1]heptane-2-carboxamide] | 14 | 96
O=C(Nc1ccc(Cl)c(Cl)c1)[C@H]1[C@@H]2O[C@@H](C[C@H]2F)[C@@H]1c1ccnc(F)c1 [Example 112, (1S,2R,3S,4S,6R)—N-(3,4-dichlorophenyl)-6-fluoro-3-(2-fluoropyridin-4-yl)-7-oxabicyclo[2.2.1]heptane-2-carboxamide] | 28 | 99
O=C(Nc1ccc(Cl)c(Cl)c1)[C@@H]1[C@@H](c2cccc(C(F)(F)F)n2)[C@H]2O[C@@H]1C[C@@H]2O [Example 140, (1R,2R,3S,4R,5S)—N-(3,4-dichlorophenyl)-5-hydroxy-3-(6-(trifluoromethyl)pyridin-2-yl)-7-oxabicyclo[2.2.1]heptane-2-carboxamide] | 15 | 292
Cc1cc([C@H]2[C@H]3O[C@H](C[C@H]3F)[C@H]2C(=O)Nc2ccc(Cl)c(Cl)c2)ccn1 [Example 13, (1R,2S,3S,4R,5R)-N-(3,4-dichlorophenyl)-5-fluoro-3-(2-methylpyridin-4-yl)-7-oxabicyclo[2.2.1]heptane-2-carboxamide] | 4.5 | 68
O=C(Nc1cnc(Cl)c(Cl)c1)[C@@H]1[C@@H](c2ccnc(F)c2)[C@H]2O[C@@H]1C[C@H]2NCCO [Example 176, (1R,2R,3S,4R,5R)—N-(5,6-dichloropyridin-3-yl)-3-(2-fluoropyridin-4-yl)-5-((2-hydroxyethyl)amino)-7-oxabicyclo[2.2.1]heptane-2-carboxamide] | 25 | 51
Cc1cc([C@H]2[C@H]3O[C@H](C[C@H]3F)[C@@H]2C(=O)Nc2ccc(Cl)c(Cl)c2)ccn1 (single isomer, unassigned) [Example 92] | > 50 | 57
CN(C)[C@@H]1C[C@H]2O[C@@H]1[C@H](c1ccnc(F)c1)[C@H]2C(=O)Nc1ccc(Cl)c(Cl)c1 [Example 172, (1R,2R,3S,4R,5R)—N-(3,4-dichlorophenyl)-5-(dimethylamino)-3-(2-fluoropyridin-4-yl)-7-oxabicyclo[2.2.1]heptane-2-carboxamide] | 16 | 177
O=C(Nc1ccc(Cl)c(Cl)c1)[C@H]1[C@@H]2O[C@@H]([C@H]3C[C@H]32)[C@@H]1c1ccnc(F)c1F (single isomer, unassigned) [Example 122a] | 25 | 160
Cc1cc([C@H]2[C@H]3O[C@H]([C@H](O)[C@@H]3O)[C@@H]2C(=O)Nc2cnc(C)c(C(F)(F)F)c2)ccn1 [Example 163, (1S,2R,3S,4R,5S,6R)-5,6-dihydroxy-N-(6-methyl-5-(trifluoromethyl)pyridin-3-yl)-3-(2-methylpyridin-4-yl)-7-oxabicyclo[2.2.1]heptane-2-carboxamide] | > 50 | 23
COc1ccc(NC(=O)[C@@H]2[C@@H]3O[C@@H]([C@H]4C[C@H]43)[C@@H]2c2cccc(C(F)(F)F)n2)cn1 [Example 35, (1S,2S,4R,5R,6S,7S)—N-(6-methoxypyridin-3-yl)-7-(6-(trifluoromethyl)pyridin-2-yl)-8-oxatricyclo[3.2.1.0^2,4]octane-6-carboxamide] | > 50 | 0
Cc1cc([C@H]2[C@H]3O[C@H]([C@@H]4C[C@@H]43)[C@@H]2C(=O)Nc2ccc(OC(F)(F)F)c(F)c2)ccn1 [Example 71, (1S,2S,4R,5R,6R,7S)—N-(3-fluoro-4-(trifluoromethoxy)phenyl)-7-(2-methylpyridin-4-yl)-8-oxatricyclo[3.2.1.0^2,4]octane-6-carboxamide] | 6.2 | 250
O=C(Nc1cccc(C(F)(F)F)c1)[C@@H]1[C@@H]2O[C@@H]([C@H]3C[C@H]32)[C@@H]1c1cncnc1 [Example 37, (1S,2S,4R,5R,6S,7S)-7-(pyrimidin-5-yl)-N-(3-(trifluoromethyl)phenyl)-8-oxatricyclo[3.2.1.0^2,4]octane-6-carboxamide] | > 50 | 26
Cc1ncc([C@H]2[C@H]3O[C@H]([C@@H]4C[C@@H]43)[C@H]2C(=O)Nc2ccc(Cl)c(Cl)c2)cn1 [Example 42, (1S,2S,4R,5R,6S,7S)—N-(3,4-dichlorophenyl)-7-(2-methylpyrimidin-5-yl)-8-oxatricyclo[3.2.1.0^2,4]octane-6-carboxamide] | 18 | 57
Cc1cc([C@H]2[C@H]3O[C@H]([C@@H]4C[C@@H]43)[C@@H]2C(=O)Nc2ccc(Cl)c(F)c2)ccn1 [Example 68, (1S,2S,4R,5R,6R,7S)—N-(4-chloro-3-fluorophenyl)-7-(2-methylpyridin-4-yl)-8-oxatricyclo[3.2.1.0^2,4]octane-6-carboxamide] | 15 | 306
O=C(Nc1ccc(Cl)c(Cl)c1)[C@@H]1[C@@H](c2ccnc(C(F)(F)F)c2)[C@H]2O[C@@H]1C[C@@H]2O (racemic) [Example 145, rac-(1R,2R,3S,4R,5S)—N-(3,4-dichlorophenyl)-5-hydroxy-3-(2-(trifluoromethyl)pyridin-4-yl)-7-oxabicyclo[2.2.1]heptane-2-carboxamide] | 17 | 246
O=C(Nc1cnc(Cl)c(Cl)c1)[C@H]1[C@@H](c2ccncc2)[C@H]2O[C@@H]1C[C@@H]2O (single isomer, unassigned) [Example 10a] | > 50 | 55
O=C(Nc1ccc(Cl)c(Cl)c1)[C@H]1[C@@H](c2cncnc2)[C@H]2O[C@@H]1C[C@@H]2O [Example 51, (1R,2S,3S,4R,5S)—N-(3,4-dichlorophenyl)-5-hydroxy-3-(pyrimidin-5-yl)-7-oxabicyclo[2.2.1]heptane-2-carboxamide] | > 50 | 0
O=C(Nc1cccc(C(F)(F)F)c1)[C@@H]1[C@@H](c2ccncc2)[C@H]2O[C@@H]1C[C@@H]2O [Example 88, (1R,2R,3S,4R,5S)-5-hydroxy-3-(pyridin-4-yl)-N-(3-(trifluoromethyl)phenyl)-7-oxabicyclo[2.2.1]heptane-2-carboxamide] | > 50 | 27
Cc1ncc([C@H]2[C@H]3O[C@H]([C@@H]4C[C@@H]43)[C@@H]2C(=O)Nc2ccc(Cl)c(Cl)c2)cn1 [Example 135, (1S,2S,4R,5R,6R,7S)—N-(3,4-dichlorophenyl)-7-(2-methylpyrimidin-5-yl)-8-oxatricyclo[3.2.1.0^2,4]octane-6-carboxamide] | 16 | 237
Cc1nccc([C@H]2[C@H]3O[C@H](C[C@@H]3O)[C@@H]2C(=O)Nc2ccc(Cl)c(Cl)c2)n1 [Example 82, (1R,2R,3S,4R,5S)—N-(3,4-dichlorophenyl)-5-hydroxy-3-(2-methylpyrimidin-4-yl)-7-oxabicyclo[2.2.1]heptane-2-carboxamide] | > 50 | 74
O=C(Nc1cnc(Cl)c(Cl)c1)[C@@H]1[C@@H]2O[C@@H]([C@H]3C[C@H]32)[C@@H]1c1ccncc1 (racemic) [Example 43, rac-(1S,2S,4R,5R,6S,7S)—N-(5,6-dichloropyridin-3-yl)-7-(pyridin-4-yl)-8-oxatricyclo[3.2.1.0^2,4]octane-6-carboxamide] | > 50 | 168
Cc1cc([C@H]2[C@H]3O[C@H](C[C@H]3F)[C@@H]2C(=O)Nc2cccc(C(F)(F)F)c2)ccn1 [Example 96, (1R,2R,3S,4R,5R)-5-fluoro-3-(2-methylpyridin-4-yl)-N-(3-(trifluoromethyl)phenyl)-7-oxabicyclo[2.2.1]heptane-2-carboxamide] | 14 | 281
COc1ccc(NC(=O)[C@H]2[C@@H]3O[C@@H]([C@H]4C[C@H]43)[C@@H]2c2ccnc(F)c2F)cn1 [Example 127, (1S,2S,4R,5R,6R,7S)-7-(2,3-difluoropyridin-4-yl)-N-(6-methoxypyridin-3-yl)-8-oxatricyclo[3.2.1.0^2,4]octane-6-carboxamide] | > 50 | 62
Nc1ncc([C@H]2[C@H]3O[C@H](C[C@@H]3F)[C@H]2C(=O)Nc2ccc(Cl)c(Cl)c2)cn1 [Example 20, (1R,2S,3S,4R,5S)-3-(2-aminopyrimidin-5-yl)-N-(3,4-dichlorophenyl)-5-fluoro-7-oxabicyclo[2.2.1]heptane-2-carboxamide] | > 50 | 5
O=C(Nc1ccc(Cl)c(Cl)c1)[C@@H]1[C@@H](c2ccnc(F)c2)[C@H]2O[C@@H]1C[C@@H]2F [Example 111, (1R,2R,3S,4R,5S)—N-(3,4-dichlorophenyl)-5-fluoro-3-(2-fluoropyridin-4-yl)-7-oxabicyclo[2.2.1]heptane-2-carboxamide] | 28 | 87

From patent US12209096B2, “Compounds and compositions for inducing chondrogenesis” (NOVARTIS AG, priority 2017, dated 2025)
